Where two headings read alike, the source gives them in different places.
Columns and labels:
[1] = target: ROCK1 (Homo sapiens (Human), UniProt Q13464); test: ROCK assay (LabChip peptide phosphorylation), ROCK1; format: biochemical; settings: 5 μM ATP, 1.5 μM peptide substrate
Protocol: (§1) The effectiveness of compounds of the present invention as ROCK inhibitors can be determined in a 30 μL assay containing 20 mM HEPES, pH 7.5, 20 mM MgCl2, 0.015% Brij-35, 4 mM DTT, 5 μM ATP and 1.5 μM peptide substrate (FITC-AHA-[…]-OH). Compounds were dissolved in DMSO so that the final concentration of DMSO was <2%, and the reaction was initiated with Rho kinase variants. After incubation, the reaction was terminated by the addition of EDTA and the phosphorylated and non-phosphorylated peptides separated using a LabChip 3000 Reader (Caliper Life Sciences). […] Compounds were tested in dose-response format, and the inhibition of kinase activity was calculated at each concentration of compound. The inhibition data were fit using a curve-fitting program to determine the IC50; i.e., the concentration of compound required to inhibit 50% of kinase activity.”

[2] = target: ROCK2 (Homo sapiens (Human), UniProt O75116); test: ROCK assay (LabChip peptide phosphorylation), ROCK2; format: biochemical; settings: 5 μM ATP, 1.5 μM peptide substrate
ROCK2, sequence (O75116 whole entry, species assumed): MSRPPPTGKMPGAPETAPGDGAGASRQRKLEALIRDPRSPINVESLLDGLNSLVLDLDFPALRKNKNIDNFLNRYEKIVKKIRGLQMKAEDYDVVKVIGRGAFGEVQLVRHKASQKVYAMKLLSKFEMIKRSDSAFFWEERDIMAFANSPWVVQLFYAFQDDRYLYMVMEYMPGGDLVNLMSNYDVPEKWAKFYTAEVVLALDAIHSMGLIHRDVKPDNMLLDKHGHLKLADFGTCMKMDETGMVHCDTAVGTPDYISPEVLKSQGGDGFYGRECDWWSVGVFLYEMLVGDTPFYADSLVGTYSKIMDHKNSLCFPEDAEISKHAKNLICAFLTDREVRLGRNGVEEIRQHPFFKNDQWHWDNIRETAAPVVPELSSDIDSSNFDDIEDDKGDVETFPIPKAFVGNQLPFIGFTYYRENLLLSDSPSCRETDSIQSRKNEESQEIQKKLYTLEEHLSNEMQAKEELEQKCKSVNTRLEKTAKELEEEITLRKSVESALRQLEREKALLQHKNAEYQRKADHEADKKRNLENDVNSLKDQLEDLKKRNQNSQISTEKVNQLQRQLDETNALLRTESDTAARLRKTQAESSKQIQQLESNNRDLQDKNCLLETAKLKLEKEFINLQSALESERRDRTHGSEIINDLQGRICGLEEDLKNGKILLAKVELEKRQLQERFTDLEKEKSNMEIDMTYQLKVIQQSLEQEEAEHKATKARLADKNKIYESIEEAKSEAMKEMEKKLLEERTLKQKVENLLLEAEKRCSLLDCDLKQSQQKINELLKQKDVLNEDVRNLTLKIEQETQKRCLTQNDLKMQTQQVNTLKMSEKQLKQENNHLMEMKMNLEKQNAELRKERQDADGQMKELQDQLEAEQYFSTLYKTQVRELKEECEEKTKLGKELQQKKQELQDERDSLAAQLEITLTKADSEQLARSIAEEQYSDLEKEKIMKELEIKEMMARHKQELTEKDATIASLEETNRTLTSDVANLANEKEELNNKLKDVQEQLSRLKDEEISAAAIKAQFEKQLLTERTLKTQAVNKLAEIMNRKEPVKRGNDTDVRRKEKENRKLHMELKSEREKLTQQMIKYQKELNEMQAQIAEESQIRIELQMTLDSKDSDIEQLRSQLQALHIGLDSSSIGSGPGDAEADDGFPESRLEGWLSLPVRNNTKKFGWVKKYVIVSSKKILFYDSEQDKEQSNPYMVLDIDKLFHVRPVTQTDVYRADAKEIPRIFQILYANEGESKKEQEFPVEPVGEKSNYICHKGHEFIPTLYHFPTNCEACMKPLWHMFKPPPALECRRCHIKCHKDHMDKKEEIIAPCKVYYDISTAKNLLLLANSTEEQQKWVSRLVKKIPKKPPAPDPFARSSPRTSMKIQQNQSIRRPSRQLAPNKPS
Protocol: as §1

[3] = tested on: Dahl salt-sensitive rats; settings: rat, in vivo; cited from earlier work
[4] = tested on: neointimal formation in rats; settings: cited from earlier work
[5] = tested on: spontaneously hypertensive rat, renal hypertensive rat and deoxycortisone acetate salt hypertensive rat models; settings: cited from earlier work
[6] = tested on: IL-1 beta-induced coronary stenosis; settings: long term treatment; cited from earlier work
[7] = tested on: rat stroke model; settings: in vivo; cited from earlier work

ROCK1, sequence (Q13464 whole entry, species assumed): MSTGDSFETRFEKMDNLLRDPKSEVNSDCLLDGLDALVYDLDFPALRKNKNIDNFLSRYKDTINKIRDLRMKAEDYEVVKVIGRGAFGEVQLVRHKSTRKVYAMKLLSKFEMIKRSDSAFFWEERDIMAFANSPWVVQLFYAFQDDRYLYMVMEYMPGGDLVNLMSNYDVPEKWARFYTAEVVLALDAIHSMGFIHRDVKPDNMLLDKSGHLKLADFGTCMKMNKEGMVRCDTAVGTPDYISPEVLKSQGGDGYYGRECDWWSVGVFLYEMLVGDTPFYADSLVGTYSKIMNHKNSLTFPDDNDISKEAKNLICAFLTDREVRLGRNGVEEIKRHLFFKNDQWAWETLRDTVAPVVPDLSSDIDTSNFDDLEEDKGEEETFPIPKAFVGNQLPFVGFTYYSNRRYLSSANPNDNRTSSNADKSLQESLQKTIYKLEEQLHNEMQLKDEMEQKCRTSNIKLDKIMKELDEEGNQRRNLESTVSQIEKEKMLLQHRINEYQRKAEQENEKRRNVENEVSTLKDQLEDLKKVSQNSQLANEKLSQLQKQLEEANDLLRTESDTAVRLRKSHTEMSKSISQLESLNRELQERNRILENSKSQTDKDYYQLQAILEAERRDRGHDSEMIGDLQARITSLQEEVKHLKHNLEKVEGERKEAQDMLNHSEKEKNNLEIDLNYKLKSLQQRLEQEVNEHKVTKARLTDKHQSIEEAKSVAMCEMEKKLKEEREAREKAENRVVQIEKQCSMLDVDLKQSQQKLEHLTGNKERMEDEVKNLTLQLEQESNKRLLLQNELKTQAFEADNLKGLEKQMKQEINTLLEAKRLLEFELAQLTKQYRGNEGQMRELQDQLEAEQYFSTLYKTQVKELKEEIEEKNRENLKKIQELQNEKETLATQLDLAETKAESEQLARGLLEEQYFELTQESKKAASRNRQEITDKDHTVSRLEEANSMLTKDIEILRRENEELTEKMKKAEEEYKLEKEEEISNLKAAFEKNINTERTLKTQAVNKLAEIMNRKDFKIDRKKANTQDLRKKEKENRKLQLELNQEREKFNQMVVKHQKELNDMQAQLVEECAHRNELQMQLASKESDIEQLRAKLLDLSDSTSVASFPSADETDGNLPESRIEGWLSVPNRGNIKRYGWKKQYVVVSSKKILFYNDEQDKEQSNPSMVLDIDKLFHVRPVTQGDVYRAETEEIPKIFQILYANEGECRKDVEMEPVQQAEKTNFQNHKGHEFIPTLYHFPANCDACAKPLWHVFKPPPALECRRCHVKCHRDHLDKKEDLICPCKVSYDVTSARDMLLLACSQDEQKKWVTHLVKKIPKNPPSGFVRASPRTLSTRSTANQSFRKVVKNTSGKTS

Structure (SMILES)	IC50 [1] [nM]	IC50 [2] [nM]	other results
O=C(Cc1ccc(-c2n[nH]c(=O)c3ccccc23)cc1)N1Cc2ccc(F)cc2C1 [Example 2, 4-(4-(2-(5-fluoroisoindolin-2-yl)-2-oxoethyl)phenyl)phthalazin-1(2H)-one]	679	30	–
O=C(Cc1ccc(-c2n[nH]c(=O)c3ccccc23)cc1)Nc1nc2ccccc2o1 [Example 10]	729	17	–
COC[C@@H]1CCCN1C(=O)Cc1ccc(-c2n[nH]c(=O)c3ccccc23)cc1 [Example 13]	16200	9730	–
O=C(Cc1ccc(-c2n[nH]c(=O)c3ccccc23)cc1)NC1CCC1 [Example 19]	6480	5830	–
CCOc1ccc2c(c1)N(C(=O)Cc1ccc(-c3n[nH]c(=O)c4ccccc34)cc1)CC2 [Example 33]	23	1.2	–
O=C(Cc1ccc(-c2n[nH]c(=O)c3ccccc23)cc1)N1CCCc2ccccc21 [Example 34]	11900	553	–
O=C(Nc1ccc(-c2n[nH]c(=O)c3ccccc23)cc1)c1csc(-c2ccc(C(F)(F)F)cc2)n1 [Example 48]	670	39	–
Cn1ccnc1C(=O)Nc1ccc(-c2n[nH]c(=O)c3ccccc23)cc1 [Example 52]	544	225	–
CN(C)c1ccc(C(=O)Nc2ccc(-c3n[nH]c(=O)c4ccccc34)cc2)cc1 [Example 58]	35	0.3	–
O=C(Nc1ccc(-c2n[nH]c(=O)c3ccccc23)cc1)c1ccc(N2CCCCC2)cc1 [Example 61]	49	2.1	–
O=C(Nc1ccc(-c2n[nH]c(=O)c3ccccc23)cc1)c1ccccc1 [Example 67]	175	14	–
O=C(Oc1ccc(-c2n[nH]c(=O)c3ccccc23)cc1)N1CCC(c2ccccc2)C1 (stereo not shown) [Example 69, 4-(4-oxo-3,4-dihydrophthalazin-1-yl)phenyl 3-phenylpyrrolidine-1-carboxylate]	50000	894	–
O=C(Nc1ccc(-c2n[nH]c(=O)c3ccccc23)cc1)N1CCc2ccccc21 [Example 76, N-(4-(4-oxo-3,4-dihydrophthalazin-1-yl)phenyl)indoline-1-carboxamide]	20	1.2	–
C[C@@H](N)[C@H]1CC[C@H](C(=O)Nc2ccncc2)CC1 [Example Y-27632, Y-27632]	–	–	ventricular hypertrophy, fibrosis and function [3]: improve ventricular hypertrophy, fibrosis and function; neointimal formation [4]: inhibited neointimal formation; blood pressure ([5]; control rats): only a minor effect on blood pressure; blood pressure ([5]; three rat models of hypertension): significantly decrease blood pressure
O=S(=O)(c1cccc2cnccc12)N1CCCNCC1 [fasudil]	–	–	coronary constrictive remodeling [6]: promote a regression of coronary constrictive remodeling; coronary stenosis [6]: progressively reduce coronary stenosis; infarct size [7]: reduce; neurologic deficit [7]: reduce
